Results from patent US20250235460A1, “COMBINATION THERAPY USING GLUCOSE-DEPENDENT INSULINOTROPIC POLYPEPTIDE RECEPTOR ANTAGONIST COMPOUNDS AND GLP-1 RECEPTOR AGONIST COMPOUNDS” (Pfizer Inc., priority 2024, published 2025).

Molecular target: human GLP-1R (Homo sapiens, UniProt P43220, G168S)
Experiment: CHO GLP-1R Clone H6 cAMP HTRF agonist assay (Assay 1, high receptor density)
Type: cell-based
Settings: for EC50: CHO GLP-1R clone H6, cAMP HTRF, geometric mean; for Emax: CHO GLP-1R clone H6, arithmetic mean, relative to saturating GLP-1 (1 μM), read-out: Assay 1 Emax (%)
Description: In Table 5 and Table 6, assay data are presented to two (2) significant figures as the geometric mean (EC50s) and arithmetic mean (Emax) based on the number of replicates listed (Number). A blank cell means there was no data for that Example or the Emax was not calculated.

human GLP-1R, sequence (P43220 24-463 G168S): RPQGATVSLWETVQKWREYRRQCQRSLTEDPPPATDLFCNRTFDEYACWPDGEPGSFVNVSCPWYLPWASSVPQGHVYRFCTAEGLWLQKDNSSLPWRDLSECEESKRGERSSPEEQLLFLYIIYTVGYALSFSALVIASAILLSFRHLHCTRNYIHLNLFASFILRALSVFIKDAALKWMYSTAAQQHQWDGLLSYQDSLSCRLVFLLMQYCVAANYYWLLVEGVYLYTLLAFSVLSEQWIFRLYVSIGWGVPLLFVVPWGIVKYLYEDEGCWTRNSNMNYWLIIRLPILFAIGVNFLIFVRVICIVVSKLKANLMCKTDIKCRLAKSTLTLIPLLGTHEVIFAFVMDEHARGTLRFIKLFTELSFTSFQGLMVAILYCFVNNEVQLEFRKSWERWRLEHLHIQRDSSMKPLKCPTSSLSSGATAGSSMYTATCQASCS

| EC50 | Emax | SMILES |
| --- | --- | --- |
| 390 nM | 82% | COCCn1c(CN2CCC(c3cccc(OCc4ccc(Cl)cc4F)n3)CC2)nc2ccc(C(=O)O)nc21 [Compound 213B, 2-[(4-{6-[(4-chloro-2-fluorobenzyl)oxy]pyridin-2-yl}piperidin-1-yl)methyl]-3-(2-methoxyethyl)-3H-imidazo[4,5-b]pyridine-5-carboxylic acid] |
| – | 71% | N#Cc1ccc(COc2cccc(C3CCN(Cc4nc5ccc(C(=O)O)nc5n4Cc4ncco4)CC3)n2)c(F)c1 [Compound 214B, 2-[(4-{6-[(4-cyano-2-fluorobenzyl)oxy]pyridin-2-yl}piperidin-1-yl)methyl]-3-(1,3-oxazol-2-ylmethyl)-3H-imidazo[4,5-b]pyridine-5-carboxylic acid] |
| 130 nM | 72% | Cn1c(CN2CCC(c3cccc(OCc4ccc(C(F)(F)F)cc4F)n3)CC2)nc2ccc(C(=O)O)cc21 [Compound 222B, 2-{[4-(6-{[2-fluoro-4-(trifluoromethyl)benzyl]oxy}pyridin-2-yl)piperidin-1-yl]methyl}-1-methyl-1H-benzimidazole-6-carboxylic acid] |
| 170 nM | 69% | Cn1c(CN2CCC(c3cccc(OCc4ccc(F)cc4F)n3)CC2)nc2ccc(C(=O)O)cc21 [Compound 223B, 2-[(4-{6-[(2,4-difluorobenzyl)oxy]pyridin-2-yl}piperidin-1-yl)methyl]-1-methyl-1H-benzimidazole-6-carboxylic acid] |
| 1200 nM | 53% | Cn1c(CN2CCC(c3cccc(OCc4c(F)cccc4F)n3)CC2)nc2ccc(C(=O)O)cc21 [Compound 224B, 2-[(4-{6-[(2,6-difluorobenzyl)oxy]pyridin-2-yl}piperidin-1-yl)methyl]-1-methyl-1H-benzimidazole-6-carboxylic acid] |
| 1700 nM | 80% | Cc1ccccc1COc1cccc(C2CCN(Cc3nc4ccc(C(=O)O)cc4n3C)CC2)n1 [Compound 230B, 1-methyl-2-[(4-{6-[(2-methylbenzyl)oxy]pyridin-2-yl}piperidin-1-yl)methyl]-1H-benzimidazole-6-carboxylic acid] |
| 290 nM | 64% | Cn1c(CN2CCC(c3cccc(OCc4ccc(C#N)cc4)n3)CC2)nc2ccc(C(=O)O)cc21 [Compound 234B, 2-[(4-{6-[(4-cyanobenzyl)oxy]pyridin-2-yl}piperidin-1-yl)methyl]-1-methyl-1H-benzimidazole-6-carboxylic acid] |
| 390 nM | 72% | CC1(C)CC(Cn2c(CN3CCC(c4cccc(OCc5ccc(Cl)cc5F)n4)CC3)nc3ccc(C(=O)O)cc32)O1 (stereo not drawn) [Compound 235B, 2-[(4-{6-[(4-chloro-2-fluorobenzyl)oxy]pyridin-2-yl}piperidin-1-yl)methyl]-1-[(4,4-dimethyloxetan-2-yl)methyl]-1H-benzimidazole-6-carboxylic acid] |
| 1300 nM | 79% | CC(C)n1cnnc1Cn1c(CN2CCC(c3cccc(OCc4ccc(Cl)cc4F)n3)CC2)nc2ccc(C(=O)O)cc21 [Compound 236B, 2-[(4-{6-[(4-chloro-2-fluorobenzyl)oxy]pyridin-2-yl}piperidin-1-yl)methyl]-1-{[4-(propan-2-yl)-4H-1,2,4-triazol-3-yl]methyl}-1H-benzimidazole-6-carboxylic acid] |
| > 10000 nM | 85% | CCc1noc(Cn2c(CN3CCC(c4cccc(OCc5ccc(Cl)cc5F)n4)CC3)nc3ccc(C(=O)O)cc32)n1 [Compound 264B, 2-[(4-{6-[(4-chloro-2-fluorobenzyl)oxy]pyridin-2-yl}piperidin-1-yl)methyl]-1-[(3-ethyl-1,2,4-oxadiazol-5-yl)methyl]-1H-benzimidazole-6-carboxylic acid] |
| > 15000 nM | 100% | CC1(Cn2c(CN3CCC(c4cccc(OCc5ccc(Cl)cc5F)n4)CC3)nc3ccc(C(=O)O)cc32)CCO1 (stereo not drawn) [Compound 265B, 2-[(4-{6-[(4-chloro-2-fluorobenzyl)oxy]pyridin-2-yl}piperidin-1-yl)methyl]-1-[(2-methyloxetan-2-yl)methyl]-1H-benzimidazole-6-carboxylic acid] |
| > 19000 nM | 100% | C[C@H]1CN(c2cccc(OCc3ccc(C#N)cc3F)n2)CCN1Cc1nc2ccc(C(=O)O)cc2n1C[C@H]1CCOC1 [Compound 267B, 2-{[(2S)-4-{6-[(4-cyano-2-fluorobenzyl)oxy]pyridin-2-yl}-2-methylpiperazin-1-yl]methyl}-1-[(3R)-tetrahydrofuran-3-ylmethyl]-1H-benzimidazole-6-carboxylic acid] |
| > 20000 nM | – | O=C(O)c1ccc2nc(CN3CCC(c4cccc(OCc5ccc(Cl)cc5F)n4)CC3)n([C@@H]3CCOC3)c2c1 [Compound 268B, 2-[(4-{6-[(4-chloro-2-fluorobenzyl)oxy]pyridin-2-yl}piperidin-1-yl)methyl]-1-[(3R)-tetrahydrofuran-3-yl]-1H-benzimidazole-6-carboxylic acid] |
| > 20000 nM | – | CCn1cncc1Cn1c(CN2CCN(c3cccc(OCc4ccc(C#N)cc4F)n3)C[C@@H]2C)nc2ccc(C(=O)O)cc21 [Compound 269B, 2-{[(2S)-4-{6-[(4-cyano-2-fluorobenzyl)oxy]pyridin-2-yl}-2-methylpiperazin-1-yl]methyl}-1-[(1-ethyl-1H-imidazol-5-yl)methyl]-1H-benzimidazole-6-carboxylic acid] |
| > 20000 nM | – | O=C(O)c1ccc2nc(CN3CCC(c4cccc(OCc5ccc(Cl)cc5F)n4)CC3)n(Cc3cnoc3)c2c1 [Compound 270B, 2-[(4-{6-[(4-chloro-2-fluorobenzyl)oxy]pyridin-2-yl}piperidin-1-yl)methyl]-1-(1,2-oxazol-4-ylmethyl)-1H-benzimidazole-6-carboxylic acid] |
| > 20000 nM | – | O=C(O)c1ccc2nc(CN3CCC(c4cccc(OCc5ccc(Cl)cc5F)n4)CC3)n(Cc3ncon3)c2c1 [Compound 271B, 2-[(4-{6-[(4-chloro-2-fluorobenzyl)oxy]pyridin-2-yl}piperidin-1-yl)methyl]-1-(1,2,4-oxadiazol-3-ylmethyl)-1H-benzimidazole-6-carboxylic acid] |
| > 20000 nM | – | O=C(O)c1ccc2nc(CN3CCC(c4cccc(OCc5ccc(Cl)cc5F)n4)CC3)n([C@H]3CCOC3)c2c1 [Compound 272B, 2-[(4-{6-[(4-chloro-2-fluorobenzyl)oxy]pyridin-2-yl}piperidin-1-yl)methyl]-1-[(3S)-tetrahydrofuran-3-yl]-1H-benzimidazole-6-carboxylic acid] |
| > 20000 nM | – | CCn1cncc1Cn1c(CN2CCC(c3cccc(OCc4ccc(C#N)cc4F)n3)CC2)nc2ccc(C(=O)O)nc21 [Compound 273B, 2-[(4-{6-[(4-cyano-2-fluorobenzyl)oxy]pyridin-2-yl}piperidin-1-yl)methyl]-3-[(1-ethyl-1H-imidazol-5-yl)methyl]-3H-imidazo[4,5-b]pyridine-5-carboxylic acid] |
| > 20000 nM | – | Cn1cncc1Cn1c(CN2CCC(c3cccc(OCc4ccc(C#N)cc4F)n3)CC2)nc2ccc(C(=O)O)nc21 [Compound 274B, 2-[(4-{6-[(4-cyano-2-fluorobenzyl)oxy]pyridin-2-yl}piperidin-1-yl)methyl]-3-[(1-methyl-1H-imidazol-5-yl)methyl]-3H-imidazo[4,5-b]pyridine-5-carboxylic acid] |
| > 20000 nM | – | Cn1cnc(CCn2c(CN3CCC(c4cccc(OCc5ccc(Cl)cc5F)n4)CC3)nc3ccc(C(=O)O)cc32)c1 [Compound 276B, 2-[(4-{6-[(4-chloro-2-fluorobenzyl)oxy]pyridin-2-yl}piperidin-1-yl)methyl]-1-[2-(1-methyl-1H-imidazol-4-yl)ethyl]-1H-benzimidazole-6-carboxylic acid] |
| 130 nM | 80% | CC(F)(F)Cn1c(CN2CCC(c3cccc(OCc4ccc(Cl)cc4F)n3)CC2)nc2ccc(C(=O)O)cc21 [Compound 302B, 2-[(4-{6-[(4-chloro-2-fluorobenzyl)oxy]pyridin-2-yl}piperidin-1-yl)methyl]-1-(2,2-difluoropropyl)-1H-benzimidazole-6-carboxylic acid] |
| 170 nM | – | O=C(O)c1ccc2nc(CN3CCC(c4cccc(OCc5ccc(Cl)cc5F)n4)CC3)n(CCn3cccn3)c2c1 [Compound 303B, 2-[(4-{6-[(4-chloro-2-fluorobenzyl)oxy]pyridin-2-yl}piperidin-1-yl)methyl]-1-[2-(1H-pyrazol-1-yl)ethyl]-1H-benzimidazole-6-carboxylic acid] |
| 190 nM | 74% | Cc1noc(CCn2c(CN3CCC(c4cccc(OCc5ccc(Cl)cc5F)n4)CC3)nc3ccc(C(=O)O)cc32)n1 [Compound 304B, 2-[(4-{6-[(4-chloro-2-fluorobenzyl)oxy]pyridin-2-yl}piperidin-1-yl)methyl]-1-[2-(3-methyl-1,2,4-oxadiazol-5-yl)ethyl]-1H-benzimidazole-6-carboxylic acid] |
| 190 nM | 86% | O=C(O)c1ccc2nc(CN3CCC(c4cccc(OCc5ccc(Cl)cc5F)n4)CC3)n(CCN3CCCOC3=O)c2c1 [Compound 305B, 2-[(4-{6-[(4-chloro-2-fluorobenzyl)oxy]pyridin-2-yl}piperidin-1-yl)methyl]-1-[2-(2-oxo-1,3-oxazinan-3-yl)ethyl]-1H-benzimidazole-6-carboxylic acid] |
| 210 nM | 77% | Cn1cc(CCn2c(CN3CCC(c4cccc(OCc5ccc(Cl)cc5F)n4)CC3)nc3ccc(C(=O)O)cc32)cn1 [Compound 307B, 2-[(4-{6-[(4-chloro-2-fluorobenzyl)oxy]pyridin-2-yl}piperidin-1-yl)methyl]-1-[2-(1-methyl-1H-pyrazol-4-yl)ethyl]-1H-benzimidazole-6-carboxylic acid] |
| 290 nM | 74% | Cn1ncnc1Cn1c(CN2CCC(c3cccc(OCc4ccc(Cl)cc4F)n3)CC2)nc2ccc(C(=O)O)cc21 [Compound 308B, 2-[(4-{6-[(4-chloro-2-fluorobenzyl)oxy]pyridin-2-yl}piperidin-1-yl)methyl]-1-[(1-methyl-1H-1,2,4-triazol-5-yl)methyl]-1H-benzimidazole-6-carboxylic acid] |
